Assay results from a melting point compilation (Tetko et al.).

Row | SMILES | melting point [°C]
1 | Cc1ccccc1OCc1csc(N)n1 | 95 to 97
2 | Nc1onc(C2CCCC2)c1-c1ccc2c(c1)OCO2 | 122 to 124
3 | O=C(O)CCCN1C(=O)CSC1=S | 124 to 126
4 | O=C(O)c1c[nH]nc1-c1ccccc1 | 286 to 288
5 | O=C(O)CCc1nc(-c2ccccn2)no1 | 206 to 208
6 | O=C(O)c1cnc2ccc(Br)cn2c1=O | 218 to 220
7 | NNC(=O)Nc1ccc(CCO)cc1 | 149 to 151
8 | CN(C)Cc1ccc(C(N)=O)cc1N | 156 to 158
9 | C=CC(=O)Nc1ccc(OC)cc1[N+](=O)[O-] | 124 to 126
10 | COc1ccc2c(c1)CCCC(=O)N2 | 142 to 144
11 | O=Cc1[nH]nnc1-c1ccccc1 | 169 to 171
12 | O=C(O)CNC(=O)Cn1cncn1 | 206 to 208
13 | Cc1noc(C2CC2)c1C(=O)O | 164 to 166
14 | O=C(O)c1cc(Br)cc2ccccc12 | 229 to 231
15 | O=C(O)c1ccc(S(=O)(=O)N2CCCCCC2)cc1 | 235 to 237
16 | Cc1ccc(NS(=O)(=O)c2ccc(N)cc2)cc1C | 150 to 152
17 | COc1cc(C(=O)O)ccc1OC1CCCC1 | 153 to 155
18 | O=C(c1nc2ccccc2s1)C(F)(F)F | 83 to 85
19 | CC(C)NC(=O)OCC(F)(F)F | 48 to 50

Row | SMILES | melting point [°C]
20 | O=Cc1cc(Br)ccc1OCC(=O)O | 170 to 172
21 | CCOC(=O)c1sc(N(C)C)nc1C | 39 to 41
22 | Cc1ccc(S(=O)(=O)N(C)C)cc1N | 172 to 174
23 | O=c1c2ccccc2nc(S)n1CCCN1CCOCC1 | 175 to 177
24 | O=C(O)c1cnc2sc(Cc3ccccc3)cn2c1=O | 197 to 199
25 | Nc1cccc(NC(=O)Nc2cccc(C(F)(F)F)c2)c1 | 180 to 182
26 | CC(Cl)C(=O)Nc1ccc([N+](=O)[O-])cc1 (configuration not stated) | 138 to 140
27 | CCC(=O)Nc1ccc(C)c(N)c1 | 121 to 123
28 | N#CCC(=O)NN1CCCCC1=O | 146 to 148
29 | O=C(CCl)N1CCCc2cc(S(=O)(=O)N3CCCC3)ccc21 | 146 to 148
30 | CC1(c2ccc3c(c2)CCC3)NC(=O)NC1=O (configuration not stated) | 188 to 190
31 | CCOc1ccccc1-c1nnc(S)n1N | 153 to 155
32 | O=C(O)c1cccc(OCc2ccccc2OC(F)F)c1 | 139 to 141
33 | CN(c1ccccc1)S(=O)(=O)c1cccc(C(=O)O)c1 | 148 to 152
34 | CCCCCCOc1ccc(C(=O)O)cc1OC | 122 to 124
35 | COc1ccc(C2CCCCC(O)C2)cc1 (configuration not stated) | 49 to 51
36 | CC(C)(C)Cc1cc(N)on1 | 87 to 89
37 | CC(CC(=O)c1cccc(F)c1)C(=O)O (configuration not stated) | 96 to 98
38 | C#CCNC(=O)CC#N | 108 to 110

Row | SMILES | melting point [°C]
39 | Sc1nnc(N2CCOCC2)n1CC1CCCO1 (configuration not stated) | 186 to 188
40 | CS(=O)(=O)N1CCN(CCN)CC1 | 10 to 12
41 | Sc1nnc(NCC2CCCO2)s1 (configuration not stated) | 123 to 125
42 | O=C1CCc2ccc(F)cc2N1 | 187 to 189
43 | CC(=O)N1CCC(C(=O)O)(c2ccccc2)CC1 | 207 to 209
44 | CNC(=O)Cc1ccccc1N | 85 to 87
45 | NNC(=O)NCC(F)(F)F | 68 to 70
46 | COC(=O)c1occc1CBr | 50 to 52
47 | COC(=O)c1cc2c(C)c(C)ccc2[nH]1 | 144 to 146
48 | FC(F)Oc1ccccc1-c1noc(CCl)n1 | < 17
49 | Nc1cccc(C(=O)N2CCSCC2)c1 | 114 to 116
50 | Cn1c(C2CC2)nc2cnccc21 | 100 to 102
51 | O=C(O)c1nc(Cl)ccc1F | 149 to 151
52 | O=C(O)C1CCN(c2ccc(Br)cn2)CC1 | 213 to 215
53 | CC(C)(C)c1ccc(-c2ccc(C(=O)O)o2)cc1 | 213 to 215
54 | CS(=O)(=O)c1cc(C(=O)O)ccc1Br | 236 to 238
55 | O=C1CCCSc2ccc(Cl)cc21 | 49 to 51
56 | O=C(Nc1cc(F)ccc1C(=O)O)c1ccoc1 | 253 to 255
57 | COC(=O)NC(C)(C)C(=O)O | 154 to 156
